Where two headings read alike, the source gives them in different places.
Experiments:
JH2 domain of human Tyk2 = JH2 domain of human Tyk2 (Homo sapiens (Human), UniProt P29597); assay: JH2 Biochemical Assay (TR-FRET probe displacement); type: binding
Procedure: The inhibitory potency of compounds of the disclosure against the kinase activity of recombinantly generated JH2 domain of human Tyk2 was evaluated in a plate-based assay using a TR-FRET assay platform. Briefly, 2 nM of recombinant JH2 domain [10×His-tagged TYK2 JH2 domain (amino acid 575-876)] was combined with 2 nM probe ((S)-6-amino-9-(2-carboxy-4-((1-(3-(8-methyl-5-(methylamino)-8H-imidazo[4,5-d]thiazolo[5,4-b]pyridin-2-yl)phenyl)ethyl)carbamoyl)phenyl)-3-iminio-5-sulfo-3H-xanthene-4-sulfonate), 0.1 nM Tb-labeled anti-His antibody, and compounds of disclosure for 60 minutes. Compounds are tested at either 10 μM or 1 μM top concentration, 10 points of 3-fold dilution. The TR-FRET signal inversely correlates to the amount of probe displaced by compounds and signal was calculated by taking the ratio of fluorescence at 520 nm and 495 nm. The data was normalized and the percent activity versus log concentration of compound was fitted with a 4-parameter logistic model to generate IC50 curves.

Tyk2 = Tyk2 (Homo sapiens (Human), UniProt P29597); assay: pSTAT4 Cell Assay (MSD, NK92 cells); type: cell-based
Tyk2, sequence (P29597 whole entry, the tested form may be a part): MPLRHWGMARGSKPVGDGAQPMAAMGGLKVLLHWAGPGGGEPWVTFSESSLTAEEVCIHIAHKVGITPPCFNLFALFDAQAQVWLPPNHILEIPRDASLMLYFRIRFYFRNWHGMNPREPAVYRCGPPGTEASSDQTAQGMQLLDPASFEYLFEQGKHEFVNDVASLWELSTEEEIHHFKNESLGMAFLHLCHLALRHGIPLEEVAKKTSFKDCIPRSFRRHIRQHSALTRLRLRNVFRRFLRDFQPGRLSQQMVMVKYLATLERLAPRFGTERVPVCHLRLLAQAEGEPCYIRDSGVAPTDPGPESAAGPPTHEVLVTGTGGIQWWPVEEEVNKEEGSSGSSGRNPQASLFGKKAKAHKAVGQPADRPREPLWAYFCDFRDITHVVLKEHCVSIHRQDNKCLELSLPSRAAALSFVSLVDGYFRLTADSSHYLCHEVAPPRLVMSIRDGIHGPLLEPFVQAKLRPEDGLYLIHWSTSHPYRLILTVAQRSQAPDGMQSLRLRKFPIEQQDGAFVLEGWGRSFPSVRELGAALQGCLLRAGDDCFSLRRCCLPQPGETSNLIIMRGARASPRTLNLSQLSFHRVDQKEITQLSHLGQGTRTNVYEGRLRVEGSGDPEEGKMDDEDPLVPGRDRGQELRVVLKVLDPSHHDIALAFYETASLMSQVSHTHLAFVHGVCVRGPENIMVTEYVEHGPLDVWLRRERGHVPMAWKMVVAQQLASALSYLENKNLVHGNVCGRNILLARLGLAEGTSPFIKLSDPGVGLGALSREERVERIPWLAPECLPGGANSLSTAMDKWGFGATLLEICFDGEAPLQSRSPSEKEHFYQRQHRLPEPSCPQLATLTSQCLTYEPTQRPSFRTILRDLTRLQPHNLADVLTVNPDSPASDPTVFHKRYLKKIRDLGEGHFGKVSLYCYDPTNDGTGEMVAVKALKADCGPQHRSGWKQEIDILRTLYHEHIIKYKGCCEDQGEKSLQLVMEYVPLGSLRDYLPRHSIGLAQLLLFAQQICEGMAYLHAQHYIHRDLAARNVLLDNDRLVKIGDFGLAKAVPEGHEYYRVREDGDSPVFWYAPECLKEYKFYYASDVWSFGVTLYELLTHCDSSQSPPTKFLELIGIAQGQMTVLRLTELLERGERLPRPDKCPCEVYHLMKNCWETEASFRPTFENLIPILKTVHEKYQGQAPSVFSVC

[1] = TR-FRET probe displacement, JH2 domain
[2] = JH2 domain of human Tyk2, TR-FRET probe displacement
[3] = TR-FRET probe displacement, JH2 domain of human Tyk2

JH2 domain of human Tyk2, sequence (P29597 575-876): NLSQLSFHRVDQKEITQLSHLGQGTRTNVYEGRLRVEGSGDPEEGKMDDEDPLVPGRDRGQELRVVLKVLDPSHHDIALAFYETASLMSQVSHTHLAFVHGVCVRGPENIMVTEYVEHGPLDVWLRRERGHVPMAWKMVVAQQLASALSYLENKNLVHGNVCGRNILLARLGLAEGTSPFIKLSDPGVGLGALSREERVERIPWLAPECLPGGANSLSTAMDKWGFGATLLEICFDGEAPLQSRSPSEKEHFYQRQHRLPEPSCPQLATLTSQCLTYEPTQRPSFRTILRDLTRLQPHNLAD

COc1cc(-c2cnc(NC(C)=O)cc2Nc2cc(C)nc(C34COC(C3)C4)n2)ncn1 [Example 750, N-(4-((2-(2-oxabicyclo[2.1.1]hexan-4-yl)-6-methylpyrimidin-4-yl)amino)-5-(6-methoxypyrimidin-4-yl)pyridin-2-yl)acetamide]
IC50 (JH2 domain of human Tyk2; [1]): ≤ 10 nM
IC50 (Tyk2): 100 to 1000 nM

CC(=O)Nc1cc(Nc2cc(C)nc(C(C)(F)F)n2)c(-c2cccc(C#N)n2)cn1 [Example 630, N-(6-cyanO4′-((2-(1,1-difluoroethyl)-6-methylpyrimidin-4-yl)amino)-[2,3′-bipyridin]-6′-yl)acetamide]
IC50 (JH2 domain of human Tyk2; [2]): ≤ 10 nM
IC50 (Tyk2; MSD): ≤ 10 nM

CC(=O)Nc1cc(Nc2cc(C)nc(C(C)(F)F)n2)c(OC(C)C2CC2)cn1 (stereo not drawn) [Example 83, N-(5-(1-cyclopropylethoxy)-4-((2-(1,1-difluoroethyl)-6-methylpyrimidin-4-yl)amino)pyridin-2-yl)acetamide]
IC50 (JH2 domain of human Tyk2; [3]): ≤ 10 nM
IC50 (Tyk2; MSD): 100 to 1000 nM

CC(=O)Nc1cc(Nc2cc(C)nc(C(C)(F)F)n2)c(-c2cccnn2)cn1 [Example 251, N-(4-((2-(1,1-difluoroethyl)-6-methylpyrimidin-4-yl)amino)-5-(pyridazin-3-yl)pyridin-2-yl)acetamide]
IC50 (JH2 domain of human Tyk2; [3]): ≤ 10 nM
IC50 (Tyk2; MSD): ≤ 10 nM

COc1cnc(NC(C)=O)cc1Nc1cc(O[C@H]2C[C@@H](F)C2)nc(C(C)(F)F)n1 [Example 461, N-(4-((2-(1,1-difluoroethyl)-6-((1s,3s)-3-fluorocyclobutoxy)pyrimidin-4-yl)amino)-5-methoxypyridin-2-yl)acetamide]
IC50 (JH2 domain of human Tyk2; [2]): ≤ 10 nM
IC50 (Tyk2; MSD): 10 to 100 nM

CC(=O)Nc1cc(Nc2cc(C)nc(C(C)(F)F)n2)c(Oc2ccnc(C(F)(F)F)n2)cn1 [Example 359, N-(4-((2-(1,1-difluoroethyl)-6-methylpyrimidin-4-yl)amino)-5-((2-(trifluoromethyl)pyrimidin-4-yl)oxy)pyridin-2-yl)acetamide]
IC50 (JH2 domain of human Tyk2; [3]): ≥ 1000 nM
IC50 (Tyk2; MSD): ≥ 1000 nM

CC(=O)Nc1cc(Nc2ccnc(C(C)(F)F)n2)c(-c2nc3c(s2)COCC3)cn1 [Example 573, N-(4-((2-(1,1-difluoroethyl)pyrimidin-4-yl)amino)-5-(6,7-dihydrO4H-pyrano[4,3-d]thiazol-2-yl)pyridin-2-yl)acetamide]
IC50 (JH2 domain of human Tyk2; [2]): ≤ 10 nM
IC50 (Tyk2; MSD): ≤ 10 nM

CC(=O)Nc1cc(Nc2ccnc(C(C)(F)F)n2)c(-c2cnc(N3CC4(CCOC4)C3)cn2)cn1 [Example 872, N-(5-(5-(6-oxa-2-azaspiro[3.4]octan-2-yl)pyrazin-2-yl)-4-((2-(1,1-difluoroethyl)pyrimidin-4-yl)amino)pyridin-2-yl)acetamide]
IC50 (JH2 domain of human Tyk2; [1]): ≤ 10 nM
IC50 (Tyk2): 10 to 100 nM

COc1nn(C)cc1COc1cnc(NC(C)=O)cc1Nc1cc(C)nc(C(C)(F)F)n1 [Example 512, N-(4-((2-(1,1-difluoroethyl)-6-methylpyrimidin-4-yl)amino)-5-((3-methoxy-1-methyl-1H-pyrazol-4-yl)methoxy)pyridin-2-yl)acetamide]
IC50 (JH2 domain of human Tyk2; [2]): 100 to 1000 nM
IC50 (Tyk2; MSD): 100 to 1000 nM

CC(=O)Nc1cc(Nc2ccnc(C(C)(F)F)n2)c(-c2cnc(COC(F)F)cn2)cn1 [Example 692, N-(4-((2-(1,1-difluoroethyl)pyrimidin-4-yl)amino)-5-(5-((difluoromethoxy)methyl)pyrazin-2-yl)pyridin-2-yl)acetamide]
IC50 (JH2 domain of human Tyk2; [2]): ≤ 10 nM
IC50 (Tyk2; MSD): 100 to 1000 nM

COc1cnc(-c2cnc(NC(C)=O)cc2Nc2ccnc(C(C)(F)F)n2)cn1 [Example 828, N-(4-((2-(1,1-difluoroethyl)pyrimidin-4-yl)amino)-5-(5-methoxypyrazin-2-yl)pyridin-2-yl)acetamide]
IC50 (JH2 domain of human Tyk2; [1]): ≤ 10 nM
IC50 (Tyk2): 10 to 100 nM

CC(=O)Nc1cc(Nc2cc(C)nc(C(C)(F)F)n2)c(-c2ccn(CC3CC3)n2)cn1 [Example 614, N-(5-(1-(cyclopropylmethyl)-1H-pyrazol-3-yl)-4-((2-(1,1-difluoroethyl)-6-methylpyrimidin-4-yl)amino)pyridin-2-yl)acetamide]
IC50 (JH2 domain of human Tyk2; [2]): ≤ 10 nM
IC50 (Tyk2; MSD): ≤ 10 nM

— patent publication US20260028365A1 (BIOGEN MA INC., priority 2022, published 2026)
